According to US10336682B1, “Hydroxytyrosol shikimic acid ester for treating cardiovascular deceases and a method of preparing the same” (SHAANXI UNIVERSITY OF SCIENCE AND TECHNOLOGY, priority 2019, dated 2019):

What was measured:
blood clot (thrombus) = test: Measurement of thrombus resolution rate: mouse blood clots incubated with test solution; parameters: species or system Kunming mice; conditions: for Resolution/% (thrombus resolution rate): 2 mL solution on mouse blood clot, 6 hours at 37° C.
Procedure: Measurement of Thrombus Resolution Rate in Mice
Experimental materials: Clean-grade Kunming mice, weighing 20-28 g each, half male and half female; urokinase (Shanghai Maclean Biotechnology Co., Ltd.)
Experimental methods: 40 healthy Kunming mice were randomly divided into 5 groups according to their body weight, 8 in each group, half male and half female. One group of mice was selected as blank control. 1 mL of blood was taken from each mouse of the blank control group. After the blood was solidified, the formed blood clot (thrombus) was rinse with physiological saline for 30 minutes, and dried and weighed. The average weight of blood clot was calculated as W. Other groups of mice were treated with the same method. The blood clots were rinsed, and placed in cryotubes. 2 mL solutions of urokinase (positive control group), a low dose of hydroxytyrosol shikimic acid ester (experiment group 1), a medium dose of hydroxytyrosol shikimic acid ester (experimental group 2), and a high dose of hydroxytyrosol shikimic acid ester (experimental group 3) were added to the blood clots. For the blank control group, an equal volume of physiological saline was added to the blood clot. After incubating for 6 hours in a 37° C. incubator, the clots were taken out and rinsed with physiological saline for 30 min. After drying and weighing, the average weight of the blood clot was recorded as G, and the resolution rate of the blood clot was calculated according to the following formula. Thrombus Resolution Rate (%)=[(W−G)/W]×100%

thromboxane B2 (TXB2) = test: Measurement of TXB2 in rat plasma after intragastric administration; type: in vivo, SD rats; conditions: for TXB2 level in rat plasma: after 20 days, male SD rats
Text: (§1) Measurement of thromboxane B2 (TXB2), 6-keto prostaglandin F1a (6-Ke-PGF1a) and prostaglandin E2 (PGE2) in rat plasma by enzyme-linked immunosorbent assay
(§2) Experimental materials: clean grade SD rats, body weight 150-250 g, male; TXB2 radioimmunoassay kit, 6-Ke-PGF1a radioimmunoassay kit, PGE2 radioimmunoassay kit, Shanghai Bairui Biotechnology Co., Ltd.
(§3) Experimental methods: 32 rats were randomly divided into 4 groups, 8 rats in each group. After 2 days of normal feeding, blood was taken from the jugular vein of each rat, and the plasma was separated and frozen at −20° C. On the next day, rats in the experimental groups were intragastrically administered with low doses of hydroxytyrosol shikimic acid ester (experimental group 1), medium dose of hydroxytyrosol shikimic acid ester (experimental group 2) and high-dose hydroxytyrosol shikimic acid ester (experimental group 3) at a dose of 1 mL/100 g. Rats in the control group were intragastrically administered with the same amount of normal saline. After 20 days, blood was taken from the jugular vein of each rat, anticoagulated, and the plasma was separated and frozen at −20° C. The contents of plasma TXB2, 6-Ke-PGF1A and PGE2 in each group of rats were determined according to TXB2, 6-Ke-PGF1a and PGE2 kit methods.

prostaglandin E2 (PGE2) = test: Measurement of PGE2 in rat plasma after intragastric administration; type: in vivo, SD rats; conditions: for PGE2 level in rat plasma: after 20 days, male SD rats
Text: as §1, §2, §3

[1] = system: 6-keto prostaglandin F1a (6-Ke-PGF1a); test: Measurement of 6-Ke-PGF1a in rat plasma after intragastric administration; type: in vivo, SD rats; conditions: for 6-Ke-PGF1a level in rat plasma: after 20 days, male SD rats
Text: as §1, §2, §3

[2] = compared with the blank control group, 25-250 mg/Kg · d

**Q.** For urokinase [reference compound], which “Resolution/% (thrombus resolution rate)” value (blood clot (thrombus); 0.5 U/mL) is on record?
**A.** Its value is 12.38 ± 0.27 %.

**Q.** Which results are given for `O=C(OCCc1ccc(O)c(O)c1)C1=C[C@@H](O)[C@@H](O)[C@H](O)C1` [hydroxytyrosol shikimic acid ester]?
**A.** TXB2 level in rat plasma (thromboxane B2 (TXB2); 25 mg/Kg · d intragastric): 4.93 ± 0.12 pg/mL; TXB2 level in rat plasma (thromboxane B2 (TXB2); 250 mg/Kg · d intragastric): 3.12 ± 0.14 pg/mL; content of TXB2 in rat plasma, in words (thromboxane B2 (TXB2); [2]): reduced in a dose-dependent manner; TXB2 level in rat plasma (thromboxane B2 (TXB2); intragastric): 4.38 ± 0.22 pg/mL; PGE2 level in rat plasma (prostaglandin E2 (PGE2); 25 mg/Kg · d intragastric): 26.18 ± 0.21 pg/mL; PGE2 level in rat plasma (prostaglandin E2 (PGE2); 50 mg/Kg · d intragastric): 24.22 ± 0.14 pg/mL; PGE2 level in rat plasma (prostaglandin E2 (PGE2); 250 mg/Kg · d intragastric): 20.87 ± 0.19 pg/mL; content of PGE2 in rat plasma, in words (prostaglandin E2 (PGE2); [2]): reduced in a dose-dependent manner; Resolution/% (thrombus resolution rate) (blood clot (thrombus); 2.5 mg/mL (low dose, experimental group 1)): 6.33 ± 0.19 %; Resolution/% (thrombus resolution rate) (blood clot (thrombus); 5 mg/mL (medium dose, experimental group 2)): 7.04 ± 0.41 %; Resolution/% (thrombus resolution rate) (blood clot (thrombus); 10 mg/mL (high dose, experimental group 3)): 8.93 ± 0.45 %; blood clot resolution (thrombolytic) effect, in words (blood clot (thrombus); compared with the blank control group, 2.5-10 mg/mL): significant thrombolytic effect; 6-Ke-PGF1a level in rat plasma ([1]; 25 mg/Kg · d intragastric): 76.46 ± 0.17 pg/mL; 6-Ke-PGF1a level in rat plasma ([1]; 50 mg/Kg · d intragastric): 85.40 ± 0.32 pg/mL; 6-Ke-PGF1a level in rat plasma ([1]; 250 mg/Kg · d intragastric): 81.36 ± 0.28 pg/mL; content of 6-Ke-PGF1a in rat plasma, in words ([1]; compared with the blank control group, 25-250 mg/Kg · d, no obvious dose-dependent relationship): increased
